Reference: paper PMC10408569, “Recruitment of hexahydroquinoline as anticancer scaffold targeting inhibition of wild and mutants EGFR (EGFR^WT, EGFR^T790M, and EGFR^L858R)” (Journal of Enzyme Inhibition and Medicinal Chemistry, 2023)

Legend:
NCI-H226 = experiment: NCI-60 anticancer screening (SRB); assay type: cell-based; conditions: Homo sapiens; for inhibition at 10 µM: NCI-H226, NSC lung cancer, one dose 10 μM, read-out: Growth Inhibition Percentage (GI %)
NCI-H322M = experiment: NCI-60 anticancer screening (SRB); assay type: cell-based; conditions: Homo sapiens; for inhibition at 10 µM: NSC lung cancer, one dose 10 μM, read-out: Growth Inhibition Percentage (GI %)
NCI-H522 = experiment: NCI-60 anticancer screening (SRB); assay type: cell-based; conditions: Homo sapiens; for inhibition at 10 µM: NCI-H522, NSC lung cancer, one dose 10 μM, read-out: Growth Inhibition Percentage (GI %)
DU-145 = experiment: NCI-60 anticancer screening (SRB); assay type: cell-based; conditions: Homo sapiens; for inhibition at 10 µM: DU-145, prostate cancer, one dose 10 μM, read-out: Growth Inhibition Percentage (GI %)
MDA-MB-468 = experiment: NCI-60 anticancer screening (SRB); assay type: cell-based; conditions: Homo sapiens; for inhibition at 10 µM: MDA-MB-468, breast cancer, one dose 10 μM, read-out: Growth Inhibition Percentage (GI %)
OVCAR-5 = experiment: NCI-60 anticancer screening (SRB); assay type: cell-based; conditions: Homo sapiens; for inhibition at 10 µM: OVCAR-5, ovarian cancer, one dose 10 μM, read-out: Growth Inhibition Percentage (GI %)
RPMI-8226 = experiment: NCI-60 anticancer screening (SRB); assay type: cell-based; conditions: Homo sapiens; for inhibition at 10 µM: RPMI-8226, leukemia, one dose 10 μM, read-out: Growth Inhibition Percentage (GI %)
U251 = experiment: NCI-60 anticancer screening (SRB); assay type: cell-based; conditions: Homo sapiens, U-251; for inhibition at 10 µM: U251, CNS cancer, one dose 10 μM, read-out: Growth Inhibition Percentage (GI %)
EGFR^L858R = EGFR^L858R (Homo sapiens, UniProt P00533, L858R); experiment: biochemical
ACHN = experiment: NCI-60 anticancer screening (SRB); assay type: cell-based; conditions: Homo sapiens; for inhibition at 10 µM: renal cancer, one dose 10 μM, read-out: Growth Inhibition Percentage (GI %)
COLO 205 = experiment: NCI-60 anticancer screening (SRB); assay type: cell-based; conditions: Homo sapiens; for inhibition at 10 µM: COLO 205, colon cancer, one dose 10 μM, read-out: Growth Inhibition Percentage (GI %)
HCT-116 = experiment: NCI-60 anticancer screening (SRB); assay type: cell-based; conditions: Homo sapiens; for inhibition at 10 µM: HCT-116, colon cancer, one dose 10 μM, read-out: Growth Inhibition Percentage (GI %)
SK-MEL-2 = experiment: NCI-60 anticancer screening (SRB); assay type: cell-based; conditions: Homo sapiens; for inhibition at 10 µM: SK-MEL-2, melanoma, one dose 10 μM, read-out: Growth Inhibition Percentage (GI %)
RXF 393 = experiment: NCI-60 anticancer screening (SRB); assay type: cell-based; conditions: Homo sapiens; for inhibition at 10 µM: RXF 393, renal cancer, one dose 10 μM, read-out: Growth Inhibition Percentage (GI %)
HCC-2998 = experiment: NCI-60 anticancer screening (SRB); assay type: cell-based; conditions: Homo sapiens; for inhibition at 10 µM: HCC-2998, colon cancer, one dose 10 μM, read-out: Growth Inhibition Percentage (GI %)
SF-268 = experiment: NCI-60 anticancer screening (SRB); assay type: cell-based; conditions: Homo sapiens; for inhibition at 10 µM: SF-268, CNS cancer, one dose 10 μM, read-out: Growth Inhibition Percentage (GI %)
SN 12C = experiment: NCI-60 anticancer screening (SRB); assay type: cell-based; conditions: Homo sapiens, SN12C; for inhibition at 10 µM: SN 12C, renal cancer, one dose 10 μM, read-out: Growth Inhibition Percentage (GI %)
BT-549 = experiment: NCI-60 anticancer screening (SRB); assay type: cell-based; conditions: Homo sapiens; for inhibition at 10 µM: BT-549, breast cancer, one dose 10 μM, read-out: Growth Inhibition Percentage (GI %)
HS 578T = experiment: NCI-60 anticancer screening (SRB); assay type: cell-based; conditions: Homo sapiens; for inhibition at 10 µM: HS 578T, breast cancer, one dose 10 μM, read-out: Growth Inhibition Percentage (GI %)
MCF7 = experiment: NCI-60 anticancer screening (SRB); assay type: cell-based; conditions: Homo sapiens; for inhibition at 10 µM: MCF7, breast cancer, one dose 10 μM, read-out: Growth Inhibition Percentage (GI %)
SF-295 = experiment: NCI-60 anticancer screening (SRB); assay type: cell-based; conditions: Homo sapiens; for inhibition at 10 µM: SF-295, CNS cancer, one dose 10 μM, read-out: Growth Inhibition Percentage (GI %)
EGFR^WT = EGFR^WT (Homo sapiens, UniProt P00533); experiment: EGFR kinase inhibitory assay (HTRF)
EGFR^T790M = EGFR^T790M (Homo sapiens, UniProt P00533, T790M); experiment: biochemical
UO-31 = experiment: NCI-60 anticancer screening (SRB); assay type: cell-based; conditions: Homo sapiens; for inhibition at 10 µM: UO-31, renal cancer, one dose 10 μM, read-out: Growth Inhibition Percentage (GI %)
SNB-19 = experiment: NCI-60 anticancer screening (SRB); assay type: cell-based; conditions: Homo sapiens; for inhibition at 10 µM: SNB-19, CNS cancer, one dose 10 μM, read-out: Growth Inhibition Percentage (GI %)
TK-10 = experiment: NCI-60 anticancer screening (SRB); assay type: cell-based; conditions: Homo sapiens; for inhibition at 10 µM: TK-10, renal cancer, one dose 10 μM, read-out: Growth Inhibition Percentage (GI %)
[1] = Cytotoxic effects in vitro on normal lung cells; assay type: cell-based; conditions: IMR-90 normal lung fibroblast cells; human normal lung fibroblast (IMR-90); read-out: IC50, cytotoxicity towards human normal cells IMR-90
CCRF-CEM = experiment: NCI-60 anticancer screening (SRB); assay type: cell-based; conditions: Homo sapiens; for inhibition at 10 µM: leukemia, one dose 10 μM, read-out: Growth Inhibition Percentage (GI %)
LOX IMVI = experiment: NCI-60 anticancer screening (SRB); assay type: cell-based; conditions: Homo sapiens; for inhibition at 10 µM: melanoma, one dose 10 μM, read-out: Growth Inhibition Percentage (GI %)
SF-539 = experiment: NCI-60 anticancer screening (SRB); assay type: cell-based; conditions: Homo sapiens; for inhibition at 10 µM: SF-539, CNS cancer, one dose 10 μM, read-out: Growth Inhibition Percentage (GI %)
OVCAR-3 = experiment: NCI-60 anticancer screening (SRB); assay type: cell-based; conditions: Homo sapiens; for inhibition at 10 µM: OVCAR-3, ovarian cancer, one dose 10 μM, read-out: Growth Inhibition Percentage (GI %)
NCI/ADR-RES = experiment: NCI-60 anticancer screening (SRB); assay type: cell-based; conditions: Homo sapiens, ovarian cancer, one dose 10 μM, read-out: Growth Inhibition Percentage (GI %)

Chain of EGFR^L858R (P00533 25-1210 L858R): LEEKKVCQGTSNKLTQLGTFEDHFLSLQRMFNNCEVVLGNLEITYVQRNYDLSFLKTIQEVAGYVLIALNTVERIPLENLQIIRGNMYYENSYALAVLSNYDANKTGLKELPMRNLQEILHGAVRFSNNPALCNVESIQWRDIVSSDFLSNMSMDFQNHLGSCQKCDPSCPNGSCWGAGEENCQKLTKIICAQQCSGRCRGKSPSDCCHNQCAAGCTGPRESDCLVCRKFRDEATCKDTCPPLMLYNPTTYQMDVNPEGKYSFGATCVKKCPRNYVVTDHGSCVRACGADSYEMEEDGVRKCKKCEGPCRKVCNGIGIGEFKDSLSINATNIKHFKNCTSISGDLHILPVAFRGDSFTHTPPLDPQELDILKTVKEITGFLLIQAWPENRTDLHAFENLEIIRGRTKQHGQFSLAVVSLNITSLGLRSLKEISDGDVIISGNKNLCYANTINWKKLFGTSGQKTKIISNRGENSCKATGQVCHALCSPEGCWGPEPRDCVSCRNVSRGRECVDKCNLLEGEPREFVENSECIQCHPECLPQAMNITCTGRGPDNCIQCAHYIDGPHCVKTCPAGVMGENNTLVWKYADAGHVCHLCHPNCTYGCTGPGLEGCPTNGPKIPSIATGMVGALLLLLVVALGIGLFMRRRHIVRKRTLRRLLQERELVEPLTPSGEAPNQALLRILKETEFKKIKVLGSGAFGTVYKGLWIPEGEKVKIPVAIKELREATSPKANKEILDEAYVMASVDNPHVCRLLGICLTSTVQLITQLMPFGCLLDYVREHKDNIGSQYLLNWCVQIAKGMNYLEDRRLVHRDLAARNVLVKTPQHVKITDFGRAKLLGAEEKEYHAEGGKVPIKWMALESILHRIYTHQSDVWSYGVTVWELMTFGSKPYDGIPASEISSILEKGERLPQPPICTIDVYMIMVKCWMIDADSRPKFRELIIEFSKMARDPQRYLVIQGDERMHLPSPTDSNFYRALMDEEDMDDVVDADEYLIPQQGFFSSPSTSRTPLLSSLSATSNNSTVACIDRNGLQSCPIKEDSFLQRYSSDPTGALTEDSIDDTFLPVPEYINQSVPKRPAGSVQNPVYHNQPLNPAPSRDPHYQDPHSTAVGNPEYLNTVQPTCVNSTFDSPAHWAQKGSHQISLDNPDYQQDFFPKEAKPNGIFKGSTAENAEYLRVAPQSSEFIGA
Chain of EGFR^T790M (P00533 25-1210 T790M): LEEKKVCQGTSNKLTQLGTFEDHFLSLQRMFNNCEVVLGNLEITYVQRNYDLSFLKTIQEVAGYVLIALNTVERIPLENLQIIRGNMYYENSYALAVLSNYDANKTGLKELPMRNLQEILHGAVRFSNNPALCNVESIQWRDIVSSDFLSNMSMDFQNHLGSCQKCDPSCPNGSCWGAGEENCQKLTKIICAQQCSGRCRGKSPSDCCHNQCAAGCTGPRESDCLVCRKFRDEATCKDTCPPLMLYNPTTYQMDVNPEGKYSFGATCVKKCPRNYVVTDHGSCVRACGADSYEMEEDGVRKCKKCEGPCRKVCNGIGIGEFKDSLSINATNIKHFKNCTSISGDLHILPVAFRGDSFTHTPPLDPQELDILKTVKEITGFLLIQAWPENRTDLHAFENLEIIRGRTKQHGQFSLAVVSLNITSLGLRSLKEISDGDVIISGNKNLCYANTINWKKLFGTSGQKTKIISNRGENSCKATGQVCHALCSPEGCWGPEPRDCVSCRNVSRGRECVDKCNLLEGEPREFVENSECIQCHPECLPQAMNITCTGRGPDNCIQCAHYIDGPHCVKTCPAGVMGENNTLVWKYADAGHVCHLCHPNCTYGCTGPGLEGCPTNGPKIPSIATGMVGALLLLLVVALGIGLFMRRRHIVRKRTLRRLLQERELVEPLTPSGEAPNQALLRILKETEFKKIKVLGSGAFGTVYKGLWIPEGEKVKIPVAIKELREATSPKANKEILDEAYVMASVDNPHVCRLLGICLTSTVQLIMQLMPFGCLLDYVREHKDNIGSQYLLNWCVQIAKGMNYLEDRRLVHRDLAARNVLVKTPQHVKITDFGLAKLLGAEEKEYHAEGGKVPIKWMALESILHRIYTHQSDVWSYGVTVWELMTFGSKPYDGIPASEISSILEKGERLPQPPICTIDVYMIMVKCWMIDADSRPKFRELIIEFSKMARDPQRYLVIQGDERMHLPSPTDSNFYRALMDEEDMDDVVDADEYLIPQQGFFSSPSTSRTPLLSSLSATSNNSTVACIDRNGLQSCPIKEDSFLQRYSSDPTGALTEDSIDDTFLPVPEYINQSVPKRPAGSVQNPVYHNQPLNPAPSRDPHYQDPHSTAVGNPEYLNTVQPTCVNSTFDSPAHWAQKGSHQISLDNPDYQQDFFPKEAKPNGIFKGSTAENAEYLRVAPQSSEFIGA
Chain of EGFR^WT (P00533 25-1210): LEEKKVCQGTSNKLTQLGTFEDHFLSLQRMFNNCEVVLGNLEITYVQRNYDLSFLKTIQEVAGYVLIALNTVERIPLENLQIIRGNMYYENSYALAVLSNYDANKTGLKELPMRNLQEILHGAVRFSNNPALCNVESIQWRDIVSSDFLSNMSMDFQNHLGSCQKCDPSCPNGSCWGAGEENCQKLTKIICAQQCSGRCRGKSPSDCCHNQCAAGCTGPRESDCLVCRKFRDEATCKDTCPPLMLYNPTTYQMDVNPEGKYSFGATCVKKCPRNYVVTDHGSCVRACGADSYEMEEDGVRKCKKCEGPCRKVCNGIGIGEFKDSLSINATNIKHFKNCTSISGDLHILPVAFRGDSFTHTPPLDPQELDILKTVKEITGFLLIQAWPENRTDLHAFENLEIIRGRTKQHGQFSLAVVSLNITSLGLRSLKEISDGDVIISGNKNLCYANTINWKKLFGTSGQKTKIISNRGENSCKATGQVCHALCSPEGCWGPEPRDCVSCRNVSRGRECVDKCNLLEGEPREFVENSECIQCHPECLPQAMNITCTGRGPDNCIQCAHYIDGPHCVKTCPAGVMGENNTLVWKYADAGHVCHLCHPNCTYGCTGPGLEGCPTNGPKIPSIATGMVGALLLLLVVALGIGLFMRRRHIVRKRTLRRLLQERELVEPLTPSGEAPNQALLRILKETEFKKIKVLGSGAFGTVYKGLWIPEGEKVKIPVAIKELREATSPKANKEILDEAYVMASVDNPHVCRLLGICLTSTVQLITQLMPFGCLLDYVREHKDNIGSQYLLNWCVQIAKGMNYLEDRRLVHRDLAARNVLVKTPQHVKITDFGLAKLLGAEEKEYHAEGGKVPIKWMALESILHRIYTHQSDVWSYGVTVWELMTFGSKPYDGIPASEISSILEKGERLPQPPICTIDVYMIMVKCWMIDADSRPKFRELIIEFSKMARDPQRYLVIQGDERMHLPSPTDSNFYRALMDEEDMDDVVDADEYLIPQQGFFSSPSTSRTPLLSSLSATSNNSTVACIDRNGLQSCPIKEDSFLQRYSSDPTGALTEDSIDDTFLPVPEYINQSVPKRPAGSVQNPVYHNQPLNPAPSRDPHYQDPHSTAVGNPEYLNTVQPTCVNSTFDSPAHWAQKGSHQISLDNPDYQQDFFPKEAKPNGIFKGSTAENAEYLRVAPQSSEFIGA

Structure (SMILES): CCOC(=O)C1=C(N)N(c2ccccc2)C2=C(C(=O)CC(C)(C)C2)C1c1ccc(Cl)cc1Cl (racemic) [10c, (±)-Ethyl 2-amino-4–(2,4-dichlorophenyl)-7,7-dimethyl-5-oxo-1-phenyl-1,4,5,6,7,8-hexahydroquinoline-3-carboxylate]
- inhibition at 10 µM (NCI-H226): 76%
- GI50 (NCI-H226; NCI-H226, five doses 0.01-100 µM, 48 h): 2340 nM
- GI50 (NCI-H322M; NCI-H322-M, five doses 0.01-100 µM, 48 h): 7.71 µM
- inhibition at 10 µM (NCI-H322M): 43%
- inhibition at 10 µM (NCI-H522): 65%
- GI50 (NCI-H522; NCI-H522, five doses 0.01-100 µM, 48 h): 2220 nM
- inhibition at 10 µM (DU-145): 54%
- GI50 (DU-145; DU-145, five doses 0.01-100 µM, 48 h): 6.71 µM
- inhibition at 10 µM (MDA-MB-468): 96%
- GI50 (MDA-MB-468; MDA-MB-468, five doses 0.01-100 µM, 48 h): 6.83 µM
- inhibition at 10 µM (OVCAR-5): 43%
- GI50 (OVCAR-5; OVCAR-5, five doses 0.01-100 µM, 48 h): 7.26 µM
- inhibition at 10 µM (RPMI-8226): 92%
- GI50 (RPMI-8226; RPMI-8226, five doses 0.01-100 µM, 48 h): 7.07 µM
- inhibition at 10 µM (U251): 72%
- GI50 (U251; U251, five doses 0.01-100 µM, 48 h): 2460 nM
- IC50 (EGFR^L858R): 623 ± 5 nM
- GI50 (ACHN; five doses 0.01-100 µM, 48 h): 1830 nM
- inhibition at 10 µM (ACHN): 83%
- inhibition at 10 µM (COLO 205): 91%
- GI50 (COLO 205; COLO-205, five doses 0.01-100 µM, 48 h): 2060 nM
- inhibition at 10 µM (HCT-116): 86%
- GI50 (HCT-116; HCT-116, five doses 0.01-100 µM, 48 h): 7.89 µM
- inhibition at 10 µM (SK-MEL-2): 112%
- GI50 (SK-MEL-2; SK-MEL-2, five doses 0.01-100 µM, 48 h): 1700 nM
- inhibition at 10 µM (RXF 393): 79%
- GI50 (RXF 393; RXF 393, five doses 0.01-100 µM, 48 h): 1380 nM
- inhibition at 10 µM (HCC-2998): 62%
- GI50 (HCC-2998; HCC-2998, five doses 0.01-100 µM, 48 h): 2770 nM
- inhibition at 10 µM (SF-268): 48%
- GI50 (SF-268; SF-268, five doses 0.01-100 µM, 48 h): 5.32 µM
- inhibition at 10 µM (SN 12C): 79%
- GI50 (SN 12C; SN 12 C, five doses 0.01-100 µM, 48 h): 3.08 µM
- inhibition at 10 µM (BT-549): 67%
- GI50 (BT-549; BT-549, five doses 0.01-100 µM, 48 h): 4.58 µM
- inhibition at 10 µM (HS 578T): < 10%
- GI50 (HS 578T; HS 578 T, five doses 0.01-100 µM, 48 h): 7.68 µM
- inhibition at 10 µM (MCF7): 91%
- GI50 (MCF7; MCF7, five doses 0.01-100 µM, 48 h): 1770 nM
- inhibition at 10 µM (SF-295): 76%
- GI50 (SF-295; SF-295, five doses 0.01-100 µM, 48 h): 2030 nM
- IC50 (EGFR^WT): 148 ± 40 nM
- IC50 (EGFR^T790M): 586 ± 3 nM
- inhibition at 10 µM (UO-31): 83%
- GI50 (UO-31; UO-31, five doses 0.01-100 µM, 48 h): 1150 nM
- inhibition at 10 µM (SNB-19): 72%
- GI50 (SNB-19; SNB-19, five doses 0.01-100 µM, 48 h): 2920 nM
- inhibition at 10 µM (TK-10): 63%
- GI50 (TK-10; TK-10, five doses 0.01-100 µM, 48 h): 5.63 µM
- IC50 [1]: 62.2 ± 3.14 µM
- GI50 (CCRF-CEM; five doses 0.01-100 µM, 48 h): 3.1 µM
- inhibition at 10 µM (CCRF-CEM): 80%
- GI50 (LOX IMVI; five doses 0.01-100 µM, 48 h): 3.24 µM
- inhibition at 10 µM (LOX IMVI): < 10%
- inhibition at 10 µM (SF-539): 67%
- GI50 (SF-539; SF-539, five doses 0.01-100 µM, 48 h): 3.78 µM
- inhibition at 10 µM (OVCAR-3): 67%
- GI50 (OVCAR-3; OVCAR-3, five doses 0.01-100 µM, 48 h): 2620 nM
- inhibition at 10 µM (NCI/ADR-RES): 76%

Structure (SMILES): CCOC(=O)C1=C(N)N(c2ccc(Cl)cc2)C2=C(C(=O)CC(C)(C)C2)C1c1ccc(Cl)cc1Cl (racemic) [10d, (±)-Ethyl 2-amino-1–(4-chorophenyl)-4–(2,4-dichlorophenyl)-7,7-dimethyl-5-oxo-1-phenyl-1,4,5,6,7,8-hexahydroquinoline-3-carboxylate]
- inhibition at 10 µM (NCI-H226): 62%
- inhibition at 10 µM (NCI-H322M): 29%
- inhibition at 10 µM (NCI-H522): 51%
- inhibition at 10 µM (DU-145): 23%
- inhibition at 10 µM (MDA-MB-468): 82%
- inhibition at 10 µM (OVCAR-5): 17%
- inhibition at 10 µM (RPMI-8226): 85%
- inhibition at 10 µM (U251): 58%
- IC50 (EGFR^L858R): 51 ± 1 nM
- inhibition at 10 µM (ACHN): 50%
- inhibition at 10 µM (COLO 205): 53%
- inhibition at 10 µM (HCT-116): 66%
- inhibition at 10 µM (SK-MEL-2): 37%
- inhibition at 10 µM (RXF 393): 38%
- inhibition at 10 µM (HCC-2998): 23%
- inhibition at 10 µM (SF-268): 27%
- inhibition at 10 µM (SN 12C): 47%
- inhibition at 10 µM (BT-549): 24%
- inhibition at 10 µM (HS 578T): < 10%
- inhibition at 10 µM (MCF7): 70%
- inhibition at 10 µM (SF-295): 48%
- IC50 (EGFR^WT): 97 ± 5 nM
- IC50 (EGFR^T790M): 280 ± 1 nM
- inhibition at 10 µM (UO-31): 65%
- inhibition at 10 µM (SNB-19): 46%
- inhibition at 10 µM (TK-10): 30%
- IC50 [1]: 55.5 ± 2.57 µM
- inhibition at 10 µM (CCRF-CEM): 64%
- inhibition at 10 µM (LOX IMVI): < 10%
- inhibition at 10 µM (SF-539): 21%
- inhibition at 10 µM (OVCAR-3): 49%
- inhibition at 10 µM (NCI/ADR-RES): 47%
